Experimental data taken from US6770637B2, “Substituted 4-phenyl-pyridine compounds with activity as antagonists of neurokinin 1 receptors” (Hoffmann-La Roche Inc., priority 2000, dated 2004).

These compounds were tested against T1, human NK1 receptor (Homo sapiens, UniProt P25103) (assay: NK1 receptor binding assay, displacement of [3H]substance P). Conditions: affinity to the NK-1 receptor; human NK1 receptors in CHO cells (Semliki virus expression system); [3H]substance P 0.6 nM.
T1 construct: expressed in transfected cells; host or cells: CHO cells infected with the Semliki virus expression system; membrane suspension
Method: The affinity of tests compounds for the NK1 receptor was evaluated at human NK 1 receptors in CHO cells infected with the human NK1 receptor (using the Semliki virus expression system) and radiolabelled with [^3H]substance P (final concentration 0.6 nM.) Binding assays were performed in HEPES buffer (50 mM, pH 7.4) containing BSA (0.04%) leupeptin (8 μg/ml), MnCl2 (3 mM) and phosphoramidon (2 μM). Binding assays consisted of 250 μl of membrane suspension (1.25×10^5 cells/assay tube), […] of bugger of displacing agent and 125 μl of [^3H]substance P. Displacement curves were determined with at least seven concentrations of the compound. The assay tubes were incubated for 60 min at room temperature after which time the tube contents were rapidly filtered under vacuum through GF/C filters presoaked for 60 min with PEI (0.3%) with 2×2 ml washes of HEPES buffer (50 mM, pH 7.4). The radioactivity retained on the filters was measured by scintillation counting. All assays were performed in triplicate in at least 2 separate experiments.

T1 sequence (P25103 whole entry): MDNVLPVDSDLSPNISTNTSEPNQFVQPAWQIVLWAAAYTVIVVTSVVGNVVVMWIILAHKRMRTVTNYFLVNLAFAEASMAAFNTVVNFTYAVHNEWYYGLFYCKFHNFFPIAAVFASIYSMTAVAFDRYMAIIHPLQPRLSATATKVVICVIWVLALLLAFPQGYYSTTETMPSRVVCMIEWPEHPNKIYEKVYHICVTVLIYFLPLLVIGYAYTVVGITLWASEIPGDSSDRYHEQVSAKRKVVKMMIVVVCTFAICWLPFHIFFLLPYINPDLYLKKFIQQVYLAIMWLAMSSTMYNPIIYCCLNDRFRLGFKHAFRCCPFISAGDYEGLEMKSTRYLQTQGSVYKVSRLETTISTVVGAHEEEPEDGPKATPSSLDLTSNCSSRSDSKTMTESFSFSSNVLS

Compound | Ki
Cc1ccccc1-c1cc(N(C(=O)C2CC2)C(=O)C2CC2)ncc1N(C)C(=O)C(C)(C)c1cc(C(F)(F)F)cc(C(F)(F)F)c1 [Example 16, Cyclopropanecarboxylic acid (5-{[2-(3,5-bis-trifluoromethyl-phenyl)-2-methyl-propionyl]-methyl-amino}-4-o-tolyl-pyridin-2-yl)-cyclopropanecarbonyl-amide] | 3.16 nM
Cc1ccccc1-c1cc([S+]([O-])c2ccccn2)ncc1C(=O)N(C)Cc1cc(C(F)(F)F)cc(C(F)(F)F)c1 (racemic) [Example 99, (RS)-N-(3,5-Bis-trifluoromethyl-benzyl)-N-methyl-6-(pyridine-2-sulfinyl)-4-o-tolyl-nicotinamide] | 2.63 nM
Cc1noc(-c2cc(-c3ccccc3C)c(C(=O)N(C)Cc3cc(C(F)(F)F)cc(C(F)(F)F)c3)cn2)n1 [Example 62, N-(3,5-Bis-trifluoromethyl-benzyl)-N-methyl-6-(3-methyl-[1,2,4]oxadiazol-5-yl)-4-o-tolyl-nicotinamide] | 3.02 nM
C#Cc1cc(-c2ccccc2C)c(N(C)C(=O)C(C)(C)c2cc(C(F)(F)F)cc(C(F)(F)F)c2)cn1 [Example 66, 2-(3,5-Bis-trifluoromethyl-phenyl)-N-(6-ethynyl-4-o-tolyl-pyridin-3-yl)-N-methyl-isobutyramide] | 2.69 nM
Cc1ccccc1-c1cc(Cl)ncc1N(C)C(=O)C(C)(C)c1cc(C(F)(F)F)cc(C(F)(F)F)c1 [Example 26, 2-(3,5-Bis-trifluoromethyl-phenyl)-N-(6-chloro-4-o-tolyl-pyridin-3-yl)-N-methyl-isobutyramide] | 2.24 nM

The next compounds have a lower Ki than those just listed; values first:

Ki | Compound
2.14 nM | CC(=O)c1ccc(-c2cc(-c3ccccc3C)c(C(=O)N(C)Cc3cc(C(F)(F)F)cc(C(F)(F)F)c3)cn2)s1 [Example 38, 6-(5-Acetyl-thiophen-2-yl)-N-(3,5-bis-trifluoromethyl-benzyl)-N-methyl-4-o-tolyl-nicotinamide]
1.66 nM | Cc1ccccc1-c1cc(OCCCO)ncc1C(=O)N(C)Cc1cc(C(F)(F)F)cc(C(F)(F)F)c1 [Example 113, N-(3,5-Bis-trifluoromethyl-benzyl)-6-(3-hydroxy-propoxy)-N-methyl-4-o-tolyl-nicotinamide]
1.62 nM | Cc1ccccc1-c1cc(NC(=O)CO)ncc1N(C)C(=O)C(C)(C)c1cc(C(F)(F)F)cc(C(F)(F)F)c1 [Example 13, 2-(3,5-Bis-trifluoromethyl-phenyl)-N-[6-(2-hydroxy-acetylamino)-4-o-tolyl-pyridin-3-yl]-N-methyl-isobutyramide]
0.832 nM | Cc1ccccc1-c1cc(C2=CCNCC2)ncc1C(=O)N(C)Cc1cc(C(F)(F)F)cc(C(F)(F)F)c1 [Example 42, 4-o-Tolyl-1′,2′,3′,6′-tetrahydro-[2,4′]bipyridinyl-5-carboxylic acid (3,5-bis-trifluoromethyl-benzyl)-methyl-amide]
0.513 nM | Cc1ccccc1-c1cc(N(O)CCO)ncc1N(C)C(=O)C(C)(C)c1cc(C(F)(F)F)cc(C(F)(F)F)c1 [Example 8, 2-(3,5-Bis-trifluoromethyl-phenyl)-N-{6-[hydroxy-(2-hydroxy-ethyl)-amino]-4-o-tolyl-pyridin-3-yl}-N-methyl-isobutyramide]
